In patent publication US4089965A, “Thiazolylphenylguanidines as antirhinovirus agents” (American Cyanamid Company, priority 1977, dated 1978):

Key:
Experiment in all cases: Protection of tissue from cytopathic effects (plaque inhibition, filter paper disc or agar overlay)
Settings in all cases: 33°, 3 to 5 days
[1] = tested on: Rhinovirus strain 2
[2] = tested on: Rhinovirus strain 5; further: test concentration or dose not given here
[3] = tested on: Rhinovirus strain 14
[4] = tested on: Rhinovirus strain 23; further: test concentration or dose not given here
[5] = tested on: Rhinovirus strain 1B

Measured: Protection of tissue from destruction by virus

N=C(Nc1cccc(Cl)c1)Nc1nc(-c2ccccc2)cs1 [1-(4-phenyl-2-thiazolyl)-3-(3-chlorophenyl) guanidine]
+: [1]

N=C(Nc1ccc(C(=O)O)cc1)Nc1nc(-c2ccccc2)cs1 [1-(4-phenyl-2-thiazolyl)-3-(4-carboxyphenyl) guanidine]
+: all assays above

N=C(Nc1ccc(F)cc1)Nc1nc(-c2ccccc2)cs1 [1-(4-phenyl-2-thiazolyl)-3-(4-fluorophenyl) guanidine]
+: [1] | [2] | [5]

Cc1ccc(NC(=N)Nc2nc(-c3ccccc3)cs2)cc1 [1-(4-phenyl-2-thiazolyl)-3-(p-tolyl)guanidine]
+: all assays above

COC(=O)c1ccc(NC(=N)Nc2nc(-c3ccccc3)cs2)cc1 [1-(4-phenyl-thiazolyl)-3-(4-carbomethoxyphenyl)-guanidine]
+: [1] | [4]

Cc1ccc(NC(=N)Nc2nc(-c3ccc(Cl)cc3)cs2)cc1 [1-[4-(4-chlorophenyl)-2-thiazolyl-3-(p-tolyl)guanidine]]
+: [1] | [5]
